The values below come from PMC7684578, “Isopedopeptins A–H: Cationic Cyclic Lipodepsipeptides from Pedobacter cryoconitis UP508 Targeting WHO Top-Priority Carbapenem-Resistant Bacteria” (ACS Chemical Biology, 2020).

Assay [1] can be described thus: Bacterial membrane permeabilization assay (carboxyfluorescein leakage from liposomes). The class given is biochemical. The settings on record: large unilamellar liposomes from E. coli phospholipid extract, 45 min, 37 °C.
For the next assay, the target named is cellular LPS receptors. Also noted: method as in PMID 24281661. The note with it: read-out: IC50 inhibition of binding of bacterial LPS to cellular receptors; cited from earlier work.

One may read the EC50 as the concentration at which the effect is half-maximal. A lower EC50 goes with an effect from little substance. As usually defined, the IC50 is the concentration needed to halve the response being measured. In the case of polymyxin B, the concentration for a half-maximal effect (EC50) in assay [1] was 1000 nM; in assay [1] (listed as Polymyxin B), approximately 1000 nM. In addition, the IC50 on cellular LPS receptors is 3.6 nM.
